Test results published in paper PMC6216040, “Repurposing of an old drug: In vitro and in vivo efficacies of buparvaquone against Echinococcus multilocularis” (International Journal for Parasitology: Drugs and Drug …, 2018).
Like-named read-outs stand apart in the source and are kept apart here.

System: E. multilocularis metacestodes
Assay: PGI-assay: drug-induced damage on in vitro cultured metacestodes (Pathogen Box screening cascade and EC50)
Format: cell-based, Echinococcus multilocularis
Details: for PGI release, % of the Tx-100 control, 5d / PGI release, % of the Tx-100 control, 12d / cytotoxicity at 10 µM: 10 µM, singlets; for cytotoxicity at 10 µM: Echinococcus multilocularis; for PGI release, % of Tx-100 control, average, 5d / PGI release, % of Tx-100 control, average, 12d: confirmatory screening at 10 µM in triplicates, values as % of Tx-100 control

SMILES | PGI release, % of the Tx-100 control, 5d (5 days of incubation) [%] | PGI release, % of the Tx-100 control, 12d (12 days of incubation) [%] | cytotoxicity at 10 µM (120 h, 5 days of incubation, read-out: PGI release, % of the Tx-100 control, 5d) [%] | cytotoxicity at 10 µM (288 h, 12 days of incubation, read-out: PGI release, % of the Tx-100 control, 12d) [%] | PGI release, % of Tx-100 control, average, 5d (5 days of incubation) [%] | PGI release, % of Tx-100 control, average, 12d (12 days of incubation) [%]
COc1cc2ncnc(NC3CCN(Cc4ccccc4)CC3)c2cc1OC [MMV006741] | -1.05 | 0.30 |  |  |  | 
Cc1cc(Cl)ccc1NC(=O)CCc1ccc(S(=O)(=O)NCC(C)C)cc1 [MMV161996] | -0.05 | 0.10 |  |  |  | 
O=C(NCc1ccoc1)N1CCN(Cc2ccc3c(c2)OCO3)CC1 [MMV688553] | 0.80 | -2.91 |  |  |  | 
N#Cc1ccc(-c2ccc(OCC(N)=O)cc2)cc1 [MMV053220] | -4.06 | -1.40 |  |  |  | 
CS(=O)(=O)Cc1nc2ccccc2oc1=O [MMV553002] | -3.93 | -1.57 |  |  |  | 
c1ccc(-c2cc(N3CCCCC3)c3ccccc3n2)nc1 [MMV560185] | 0.52 | -0.29 |  |  |  | 
CC[C@@H](CO)NCCN[C@@H](CC)CO [MMV687801, Ethambutol, reference compound] |  |  | -0.84 | 0.29 |  | 
N#Cc1ccc(-c2cnc(N)c(-c3ccc(C(N)=O)cc3)n2)cc1 [MMV085499] | 7.58 | 0.90 |  |  |  | 
COc1ccc(C2=NCCN2)cc1-c1cn(-c2cccc(C3=NCCN3)c2)nn1 [MMV688547] | -0.44 | -1.41 |  |  |  | 
Cc1cc(NC(=O)c2ccc(Oc3ccc(Cl)cc3O)o2)no1 [MMV688955] | -0.20 | -3.41 |  |  |  | 
CC1CCCN(C(=O)C(C)Nc2cc(Cl)ccc2N2CCOCC2)C1 (stereo not drawn) [MMV020388] | -0.77 | -1.83 |  |  |  | 
CC(=O)Nc1ccc(NC(=O)c2cc(-c3cc(Cl)ccc3O)n[nH]2)cc1 [MMV676380] | -0.62 | -0.39 |  |  |  | 
CN1CCN(CCCOc2ncc(Nc3ncc(-c4ccc(C(F)(F)F)c(F)c4)nc3C(N)=O)cn2)CC1 [MMV687812] | 18.86 | 22.66 |  |  | 3.65 | 4.79
N#CCN(CCCCN1CCN(c2ccc(F)cc2)CC1)C(=O)OCc1ccccc1 [MMV675997] | -0.27 | -1.46 |  |  |  | 
CN1CCN(S(=O)(=O)c2ccc(-c3ccc4c(Nc5ccc6n[nH]nc6c5)ccnc4c3)cc2)CC1 [MMV687246] | -0.71 | -0.69 |  |  |  | 
CCCNC(=O)N1CCC2(CC1)CC(=O)c1cc(C)ccc1O2 [MMV085230] | -0.40 | -0.0743 |  |  |  | 
O=C(NC1CC1)c1ccc(N2CCC(Cc3ccccc3)CC2)nc1 [MMV024397] | 0.75 | 37.30 |  |  | 0.18 | -0.13
Cc1ccc(Oc2ccc(NC(=O)CNc3ccccc3N3CCCC3=O)cc2)cc1 [MMV020512] | 0.61 | 1.80 |  |  |  | 
Cc1cc(NCC(C)C)c2[nH]nc(-c3ccccc3)c2n1 [MMV021375] | -3.66 | 7.43 |  |  |  | 
